“Also recorded” adds a separate entry of the source. Ends that are not written are not given here.
Key:
[1] = system: G1 Fab binding to human α-CGRP on the chip; assay: Epitope mapping of antibody G1 by peptide competition using Biacore; conditions: for percentage of binding of G1 Fab to human α-CGRP blocked by competing peptide: 10 uM peptide in 50 nM G1 Fab (2000:1 mol peptide/Fab), FIG. 6
From the text: N-biotinylated human α-CGRP was captured on SA sensor chip. […] Y axis represents percentage of binding blocked by the presence of the competing peptide compared with the binding in the absence of the competing peptide.
Human α-CGRP was purchased as an N-biotinylated version to enable its high-affinity capture via SA sensor chips. […] All these peptides are amidated at the C-terminus.

[2] = system: CRTC1 shuttling in DRG neurons; assay: CRTC1 nuclear shuttling in dissociated DRG neuronal cultures (immunostaining); format: cell-based, mouse
[3] = Indirect calorimetry (RER, oxygen consumption) of old wild-type mice treated with CGRP8-37 by osmotic pump; format: in vivo, mouse; conditions: old (22-23 months) male WT C57BL/6J mice, osmotic pumps, 5.5 mg/mL, after 6 weeks of treatment
Procedure: FIGS. 15A-15C: Insulin secretion assay of mouse insulinoma cells (MIN6) upon 16.8 mM glucose stimulation. Cells were incubated with 0.1-0.5 μM synthetic peptides for FIG. 15A: rat CGRPα, FIG. 15B: rat CGRPβ and FIG. 15C: rat Substance P, n=4, means±S.E.M, **p<0.01, *p<0.05, Student's t test. FIG. 15D: Serum levels of CGRP measured by ELISA in blood samples from WT and TRPV1 mutants at 3 and 24 months, n=7, means±S.E.M. a, ns and b, p<0.05. FIG. 15E: Respiratory exchange ratio (RER) analysis and oxygen consumption FIG. 15F: of 23 months old male WT animals treated with CGRP8-37 or vehicle control, n=10, means±S.E.M.,**p<0.01, *p<0.05, Student's t test.
Indirect calorimetric studies were conducted in a Comprehensive Lab Animal Monitoring System (Columbus Instruments). For GTT and GSIS, glucose (2 g/kg weight) was intraperitoneally administered and blood glucose was measured from tail bleeds at indicated times after injection using a One Touch Ultra glucometer (LifeScan). For the ITT, 5 hour fasted mice were injected with 1 u/kg of human insulin (Humulin; Eli Lily) and glucose was measured as in the GTT. […] Serum insulin was measured using an UltraSensitive Insulin ELISA kit (Crystal Chem). Serum levels of fasted leptin, adiponectin were measured using Quantikine ELISA Kits (R&D systems). […] CGRP was measured using ELISA (EIAab). […]

MIN6 cells = assay: Insulin secretion assay of mouse insulinoma cells (MIN6) upon glucose stimulation; format: cell-based; conditions: 16.8 mM glucose; for effect on glucose-stimulated insulin release: 100 nM to 500 nM peptide, FIGS. 15A-C, 16A
Procedure: FIGS. 15A-15C: Insulin secretion assay of mouse insulinoma cells (MIN6) upon 16.8 mM glucose stimulation.
FIGS. 16A-16C illustrate insulin secretion and inflammation of the TRPV1 mutant mice. FIG. 16A: Insulin secretion assay of mouse insulinoma cells (MIN6) upon 16.8 mM glucose stimulation with 0.1-0.5 μM synthetic human CGRPα. FIG. 16B: Insulin secretion assay (MIN6) upon 16.8 mM glucose and exendin 4 stimulation.
MIN6 insulinoma cells were obtained at passage 18 from Ulupi Jhala (UCSD, La Jolla, Calif.) and were cultured in DMEM (Life technologies) containing 11 mM glucose, 10% FBS, Glutamax (Invitrogen) and 10 μM β-mercapthoethanol as previously described (Huising et al., Proc. Natl. Acad. Sci. 107:912-917, 2010). Glucose stimulation was performed at low (2.8 mM) and high (16.8 mM). Treatments were diluted in Krebs-Ringer bicarbonate buffer with 2.8 mM glucose.
To mimic pancreatic β-cell glucose mediated insulin release, mouse insulinoma MIN6 cells were used (Huising et al., Proc. Natl. Acad. Sci. 107:912-917, 2010).

Chain of G1 Fab binding to human α-CGRP on the chip (as listed by the source): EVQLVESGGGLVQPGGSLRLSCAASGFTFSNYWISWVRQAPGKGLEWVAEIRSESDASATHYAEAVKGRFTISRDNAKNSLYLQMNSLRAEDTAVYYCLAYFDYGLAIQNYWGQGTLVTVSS
Chain of G1 Fab binding to human α-CGRP on the chip (as listed by the source): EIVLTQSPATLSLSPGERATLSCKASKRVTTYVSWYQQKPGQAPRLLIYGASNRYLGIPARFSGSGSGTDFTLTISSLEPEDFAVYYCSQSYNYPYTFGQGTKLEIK

1-37 of β-CGRP (WT): human β-CGRP 1-37, SEQ ID NO: 43, ACNTATCVTHRLAGLLSRSGGMVKSNFVPTNVGSKAF, C-terminally amidated
percentage of binding of G1 Fab to human α-CGRP blocked by competing peptide [1]: 100%

8-37: human α-CGRP fragment 8-37, SEQ ID NO: 16, VTHRLAGLLSRSGGVVKNNFVPTNVGSKAF, C-terminally amidated [Clone 8-37]
percentage of binding of G1 Fab to human α-CGRP blocked by competing peptide [1]: 100%

26-37: human α-CGRP fragment 26-37, SEQ ID NO: 35, NFVPTNVGSKAF, C-terminally amidated [Clone 26-37]
percentage of binding of G1 Fab to human α-CGRP blocked by competing peptide [1]: 100%

COc1cc(CNC(=O)CCCC/C=C/C(C)C)ccc1O [Cap, capsaicin]
CRTC1 nuclear localization [2]: accumulation of CRTC1 in the nuclei of TRPV1-positive cells | Cap-induced CRTC1 shuttling ([2]; TRPV1 mutant DRG neurons, Cap 1 μM, FIG. 14C): abolished

COc1cccc(NC(=O)/C=C/c2ccc(Cl)cc2)c1 [SB-366791]
CRTC1 nuclear localization after blockade of TRPV1 ([2]; WT DRG neurons, pretreatment prior to stimulation with FSK and Cap, 10 μM or 2 μM, FIG. 14D): robust nuclear exclusion of CRTC1

NC1=N[C@H](O)[C@H]2[C@H]3O[C@]4(O)O[C@@H]([C@@H](O)[C@@]2(N1)[C@@H]4O)[C@]3(O)CO [TTX, Tetrodotoxin]
distribution of CRTC1 [2]: remained mostly cytoplasmic

CGRP 8-37: positive control compound (vasodilatation antagonist); CGRP receptor antagonist (Tocris Bioscience) (VTHRLAGLLSRSGGVVKNNFVPTNVGSKAF-NH2; UniProt P06881 90-119, looked up, fragment)
oxygen consumption ([3]; vs controls): increased | respiratory exchange ratio (RER), metabolic circadian shift from night to day ([3]; vs vehicle): reappearance of a more youthful metabolic circadian shift from night to day

G1: humanized IgG2 monoclonal anti-CGRP antagonist antibody; VH SEQ ID NO: 1, VL SEQ ID NO: 2; ATCC PTA-6867 and PTA-6866 [Clone G1]
epitope on human α-CGRP that is recognized by antibody G1 ([1]; Biacore peptide competition and variant affinities): targets a C-terminal epitope of CGRP; also recorded: binds to a C-terminal epitope with F37 and G33 being the most important residues; also recorded: on the C-terminal end of human α-CGRP

K35A (19-37): human α-CGRP mutant fragment, SEQ ID NO: 19, SGGVVKNNFVPTNVGSAAF, C-terminally amidated (SGGVVKNNFVPTNVGSAAF-NH2; listed as Homo sapiens)
percentage of binding of G1 Fab to human α-CGRP blocked by competing peptide [1]: 100%

K35E (19-37): human α-CGRP mutant fragment, SEQ ID NO: 20, SGGVVKNNFVPTNVGSEAF, C-terminally amidated (SGGVVKNNFVPTNVGSEAF-NH2; listed as Homo sapiens)
percentage of binding of G1 Fab to human α-CGRP blocked by competing peptide [1]: 100%

K35M (19-37): human α-CGRP mutant fragment, SEQ ID NO: 21, SGGVVKNNFVPTNVGSMAF, C-terminally amidated (SGGVVKNNFVPTNVGSMAF-NH2; listed as Homo sapiens)
percentage of binding of G1 Fab to human α-CGRP blocked by competing peptide [1]: 100%

P29A (19-37): human α-CGRP mutant fragment, SEQ ID NO: 18, SGGVVKNNFVATNVGSKAF, C-terminally amidated (SGGVVKNNFVATNVGSKAF-NH2; listed as Homo sapiens)
percentage of binding of G1 Fab to human α-CGRP blocked by competing peptide [1]: 100%

rat α-CGRP: rat α-CGRP 1-37, SEQ ID NO: 41, SCNTATCVTHRLAGLLSRSGGVVKDNFVPTNVGSEAF
percentage of binding of G1 Fab to human α-CGRP blocked by competing peptide [1]: 100% | reduction of insulin release, % of the maximum insulin response (MIN6 cells; 100 nM peptide): 46% | effect on glucose-stimulated insulin release (MIN6 cells): insulin release was greatly blunted

rat β-CGRP: rat β-CGRP 1-37, SEQ ID NO: 44, SCNTATCVTHRLAGLLSRSGGVVKDNFVPTNVGSKAF
percentage of binding of G1 Fab to human α-CGRP blocked by competing peptide [1]: 100% | effect on glucose-stimulated insulin release (MIN6 cells): insulin release was greatly blunted | reduction of insulin release, % of the maximum insulin response (MIN6 cells; 500 nM peptide): 58%

substance P (RPKPQQFFGLM-NH2; ends and bridges not checked; UniProt P06767 58-68, looked up) [TRPV1 secreted neuropeptide; synthetic rat peptide]
effect on glucose-stimulated insulin release (MIN6 cells): did not alter insulin secretion

From US20170037117A1, “COMPOSITIONS AND METHODS FOR TREATING METABOLIC DISORDERS” (Salk Institute for Biological Studies, priority 2014, published 2017)
